Data taken from article PMC2637266, “Quantification of gamma-secretase modulation differentiates inhibitor compound selectivity between two substrates Notch and amyloid precursor protein” (Molecular Brain, 2008).
“Also recorded” adds a separate entry of the source. Like-named read-outs stand apart in the source and are kept apart here.

Legend:
[1] = biological target: T1, γ-secretase cleavage of APP C100-Flag (Homo sapiens, UniProt P49768); experiment: In vitro γ-secretase activity assay, Aβ generated from C100-Flag, ELISA; type: biochemical; conditions: for γ-secretase cleavage of APP in vitro at low concentrations: 0.1 nM to 10 nM; for IC50: C100-Flag, 37°C, 4 hr; for Aβ production in vitro, dose response: C100Flag, increasing concentrations
T1 construct: substrate made in E. coli
Description: (§1) To characterize the direct effect of two γ-secretase inhibitors cpd E and DAPT on APP/Notch cleavage, a conventional in vitro γ-secretase assay to quantify their inhibitory potency was used. The incubation of γ-secretase complex with purified substrates at 37°C for 4 hr was followed by Western Blot (WB) to determine the quantity of newly generated NICD. A newly generated band that corresponds to the predicted size of the NICD-Flag was detected (Fig. 1A and 1B).
(§2) Figure 1 Generation of NICD and Aβ from purified APP and Notch substrate C100 and N100 in an in vitro γ-secretase activity assay. The E. coli generated APP- and Notch-based, 100-residue γ-secretase substrates C100-Flag and N100-Flag were mixed with the membrane vesicles solubilized in CHAPSO after DMSO or compounds were added. The mixture was incubated at 37°C for 4 hours. A. A dose-dependent inhibition of NICD generation by DAPT. Generation of NICD was detected by Western blot (WB) with antibody 1744 specifically recognizing N-terminus of NICD. B. Generation of NICD was inhibited in the presence of 100 nM of cpd E. C. Levels of NICD determined by WB were quantified by densitometry (dotted line). Levels of Aβ generated from the γ-secretase cleavage of C100 in the presence of DAPT were determined by ELISA (solid line). […] D. NICD (dotted line) and Aβ (solid line) generation in the presence of cpd E were compared.
The same preparation of γ-secretase complex was mixed with C100Flag followed by ELISA to quantify the levels of newly generated Aβ.
(§3) The E. coli generated APP- and Notch-based, 100-residue γ-secretase substrates C100-Flag and N100-Flag were purified as previously described. C100-Flag substrate contains an initiating methionine, the 99 C-terminal residues of APP that start at the […], and a Flag tag. N100-Flag substrate contains a similar initiating methionine, 99 amino acids that start at the TACE cleavage site, and a Flag tag. The membrane vesicles were solubilized in 1% CHAPSO-HEPES and diluted in a final concentration of 0.2% CHAPSO-HEPES. Phosphatidylethanolamine (PE) and phosphatidylcholine (PC) were added to the final concentration of 0.02% PE and 0.08% PC. After adding DMSO or test compounds to the solubilized γ-secretase complex, substrate C100-Flag or N100-Flag was added to the mixture, then followed by incubation at 37°C for 4 hours. Two compounds have been used in this study, compound E (cpd E), {(S,S)-2-[2-(3,5-Difluorophenyl)-acetylamino]-N-(1-methyl-2-oxo-5-phenyl-2,3-dihydro-1H-benzo [e] [1,4] diazepin-3-yl)-propionamide} [57] and DAPT {N-[N-(3,5-Difluorophenacetyl-L-alanyl)]-S-phenylglycine t-Butyl Ester} [79]. Cpd E was provided by Dr. Michael Wolfe.
Sandwich ELISAs for Aβ were performed as described. The capture antibodies, 2G3 (to Aβ residues 33–40) and 4G8 (to Aβ residues 17–24), were used for Aβ40 and Aβ total species, respectively. The detecting antibodies were biotinylated 82E1 (to Aβ residues 1–16) for Aβ1–40/total or biotinylated 266 for Aβx-40 species. The use of mid-region and C-terminal capturing antibodies and N-terminal detecting antibody for chimeric "Notch-Aβ-like" peptide (Nβ*) has been documented. The combination of several capture/detecting antibodies are use to measure Aβ and Nβ* derived from different precursors. The capture antibody 2G3 and detecting antibody 82E1 were used for measuring Nβ* from APP-α-Notch expressing cells. Since the APP-α-NOTCH is the fusion protein with its juxtamembrane portion of the APP ectodomain (the α-secretase cleavage region) replaced by the corresponding sequence in Notch, the epitopes in APP sequence could still be recognized by 2G3 (C-terminus) and 82E1 (N-terminus). The capture antibody 4G8 and detecting antibody 82E1 were used for measuring Nβ* from APP-m-Notch expressing cells. […]

[2] = biological target: T2, γ-secretase cleavage of Notch N100-Flag (Homo sapiens, UniProt P49768); experiment: In vitro γ-secretase activity assay, NICD generated from N100-Flag, Western blot densitometry; type: biochemical; conditions: for NICD generation in vitro, dose response: N100-Flag, increasing concentrations
T2 construct: substrate made in E. coli
Description: as §1, §2, §3

zebrafish embryos = experiment: Zebrafish embryo treatment, tail curvature phenotype; type: in vivo; conditions: 50 μM; for embryo morphology, tail curvature: 24 hpf to 48 hpf, 28°C; for embryo morphology, tail curvature at 4 dpf: kept for four days
Description: Measurements of in vitro γ-secretase activity and cell-based Aβ/NICD generation have shown different inhibition potencies. To examine the inhibitory effect in vivo, zebrafish embryos were treated with DAPT or cpd E. Because different γ-secretase inhibitors may impact various metabolic pathways in zebrafish embryos, especially during development, the phenotypes of zebrafish embryos treated with high concentrations of DAPT and cpd E were compared. The major phenotype we examined was curved tail caused by defective somitogenesis.
Figure 4 Treatment of zebrafish embryos with DAPT causes curved tails. A. A stock of DAPT or cpd E in DMSO was diluted in embryo medium, and increasing concentrations of DAPT or cpd E were applied to de-chorionated zebrafish embryos incubated at 28°C from 24 hpf to 48 hpf. Control embryos were mock-treated with embryo medium containing the same concentration of DMSO. […] B. DAPT- or cpd E-treated embryos were kept until 4 dpf, and images were acquired at 40 × magnification.
Zebrafish embryos were raised and staged according to Kimmel, et al.. Compounds were dissolved in egg water at various final concentrations, and 0.5% DMSO was used as a negative control. Prior to the treatment at 24 hour post fertilization, embryos were de-chorionated manually. Embryos were placed in a 24-well plate (5–6 embryos/well) and treated with the compound containing egg water. Embryos were incubated at 28°C, and photographic images were taken at 2 days and 4 days post fertilization (dpf).
Compound-treated embryos were observed under an OLYMPUS SZX12 microscope. For examination, embryos were removed from the compound containing medium and placed into 0.4% tricane (3-amino benzoic acidethylester, Sigma, St. Louis, MO) solution. Upon anesthetizing, embryos were placed in 3% methylcellulose for positioning and images were recorded with OLYMPUS Q-COLOR3 camera. Images were taken at the 40× magnification for embryos at 2 and 4 dpf.

| SMILES | γ-secretase cleavage of APP in vitro at low concentrations [1] | Aβ production in vitro ([1]; 10 and 100 μM) | IC50 ([1]; read-out: concentration inhibiting levels of Aβ to 50% in vitro) | Aβ production in vitro, dose response [1] | γ-secretase cleavage of Notch in vitro at low concentrations ([2]; 0.1 nM to 10 nM) | Notch cleavage reduced to, in vitro γ-secretase activity assay ([2]; 1 μM or higher) | NICD generation blocked in vitro ([2]; 10 and 100 μM) | NICD generation in vitro, dose response [2] | embryo morphology, tail curvature (zebrafish embryos) | embryo morphology, tail curvature at 4 dpf (zebrafish embryos) | Aβ generation from APP C100 in vitro ([1]; 100 nM (0.1 μM)) | IC50 ([1]; read-out: IC50 for Aβ generation (levels of Aβ reduced to 50%) in vitro) | NICD generation in vitro ([2]; 100 nM (0.1 μM), compared to DMSO controls) | embryo morphology, tail curvature (zebrafish embryos; listed as Cpd E) |
| --- | --- | --- | --- | --- | --- | --- | --- | --- | --- | --- | --- | --- | --- | --- |
| C[C@H](NC(=O)Cc1cc(F)cc(F)c1)C(=O)N[C@H](C(=O)OC(C)(C)C)c1ccccc1 [DAPT, N-[N-(3,5-Difluorophenacetyl-L-alanyl)]-S-phenylglycine t-Butyl Ester] | did not inhibit | complete depletion of Aβ production | 1000 nM | dose-dependent reduction of Aβ production | did not inhibit | about 50% | ~ 60% | clear reduction of NICD generation | much shorter and curved tail; also recorded: caused curved trunk and tails; also recorded: curvature of zebrafish tail was found | continued to show the curvature of the tails | – | – | – | – |
| C[C@H](NC(=O)Cc1cc(F)cc(F)c1)C(=O)N[C@H]1N=C(c2ccccc2)c2ccccc2N(C)C1=O [cpd E, (S,S)-2-[2-(3,5-Difluorophenyl)-acetylamino]-N-(1-methyl-2-oxo-5-phenyl-2,3-dihydro-1H-benzo [e] [1,4]diazepin-3-yl)-propionamide] | selectively inhibited the γ-secretase cleavage of APP | – | – | dose-dependent reduction of Aβ production | – | – | – | clear reduction of NICD generation | lack of dramatic phenotypic alteration | minor effect on embryo morphology | could almost deplete any Aβ generation; also recorded: completely blocked Aβ generation | 1 nM | inhibited; also recorded: only minor reduction of NICD levels; also recorded: only had minor effect on Notch cleavage and NICD generation | did not show any curvature |
